Legend:
Cryptosporidium parvum [1] = assay: Growth experiment: compound added at 3 h post-infection for 41 h, qRT-PCR; type: cell-based; conditions: read-out: EC50 on parasite loads, compound added after invasion
Experimental: (§1) Candidate anti-cryptosporidial compounds were further examined for their effects on C. parvum invasion or development assays. In invasion experiments, HCT-8 cells plated on coverslips were infected with bleached oocysts and cultured with active compounds for 3 h at 37°C. In growth experiments, monolayers were infected with bleached oocysts, washed twice with PBS at 3 h post-infection, and returned to culture in fresh HCT-8 medium with active compounds for 41 h. RNA was collected from each well at specified time point to assess the anti-cryptosporidial activities of these compounds using qRT-PCR method described above. The addition of 140 μM paromomycin was used as a positive control. Parasite enumeration by immunofluorescence microscopy was used to verify the efficacy of active compound K292-0423 against C. parvum development in vitro.

rCpCDPK2A = rCpCDPK2A (Cryptosporidium parvum, UniProt Q5CTY5); assay: NADH-coupled ATPase assay of rCpCDPK2A enzyme activity; type: biochemical
Experimental: The enzymatic activity of rCpCDPK2A was measured using the […] NADH-coupled ATPase assay as described previously ([Rutaganira et al., 2017]). The kinase reaction was conducted at 30°C for 40 min in 100 mM HEPES, pH 8.0, 150 mM NaCl, 10 mM MgCl2, 1 mM CaCl2, 50 mM KCl, 10 mM DTT, 2 μg/ml BSA, and 0.01% Tween 20. The typical assay of 100 μl reactions contained 50 μM Syntide-2, 50 μM ATP, 150 μM NADH, 300 μM phosphoenolpyruvate (PEP), and a mixture of pyruvate kinase (4 units/ml) and lactate dehydrogenase (6 units/ml; Sigma). The reaction was initiated with the addition of 100 nM rCpCDPK2A. A recombinant insulinase-like protease of C. parvum, INS-16, was used as the negative control. To assess the inhibitory effect on enzymatic activities of rCpCDPK2A, six active compounds were added to the reaction at 10 μM in duplicate. Compounds with significant inhibition rates were selected to determine the half-maximal inhibition concentration (IC50) using final concentrations of 1 μM to 20 μM. The IC50 values were calculated using Graphpad Prism 7.

HCT-8 cells = assay: Cytotoxicity, Cell Titer 96 Aqueous One Solution Cell Proliferation Assay; type: cell-based, human
Experimental: (§2) Using molecular docking of the simulated CpCDPK2A structure, small molecules were selected from the ChemDiv database. The binding energy values of ligands to proteins were calculated based on ligand efficiency, Coulomb energy, Van der waals energy, and H-bond energy. Candidate small molecules were purchased from TopScience Ltd. (Shanghai, China) and screened for activities against C. parvum development in vitro using qRT-PCR ([Zhang et al., 2012]). Briefly, HCT-8 monolayers (2 × 10^4 cells/well) grown in 96 well plates were inoculated with hypochlorite-treated oocysts (2 × 10^4 oocysts/well) containing dilutions of compounds (10 μM) or DMSO (1%). The parasites were allowed to invade host cells for 3 h, and uninvaded parasites were washed off with the medium change. […] The levels of 18S rRNA transcripts of C. parvum and HCT-8 cells were measured by using the HiScript II One Step qRT-PCR SYBR Green kit (Vazyme Biotech, Nanjing, China) as described ([Zhang et al., 2012]). The parasite loads in cultures were calculated using the ΔΔCT method ([Cai et al., 2005]). […] The cytotoxicity of compounds was evaluated by the Cell Titer 96 Aqueous One Solution Cell Proliferation Assay (Promega) as described ([Pobsuk et al., 2019]). The half-maximal toxic concentration (TC50) values on host cells were calculated using Graphpad Prism 7 (Graphpad software, San Diego, United States).

Cryptosporidium parvum [2] = assay: Invasion experiment: HCT-8 cells infected with oocysts and cultured with compound for 3 h, qRT-PCR; type: cell-based; conditions: 0.01 to 20 μM, compound only during invasion phase (3 h)
Experimental: as §1

Cryptosporidium parvum [3] = assay: Anti-cryptosporidial activity on C. parvum development in HCT-8 cultures by qRT-PCR (compound present during invasion and growth, 44 h); type: cell-based
Experimental: as §2

Cryptosporidium parvum [4] = assay: Parasite enumeration by immunofluorescence microscopy in treated HCT-8 cultures; type: cell-based; conditions: 10 μM; positive control paromomycin 140 μM
Experimental: as §1

Chain of rCpCDPK2A (Q5CTY5 entry or part of it): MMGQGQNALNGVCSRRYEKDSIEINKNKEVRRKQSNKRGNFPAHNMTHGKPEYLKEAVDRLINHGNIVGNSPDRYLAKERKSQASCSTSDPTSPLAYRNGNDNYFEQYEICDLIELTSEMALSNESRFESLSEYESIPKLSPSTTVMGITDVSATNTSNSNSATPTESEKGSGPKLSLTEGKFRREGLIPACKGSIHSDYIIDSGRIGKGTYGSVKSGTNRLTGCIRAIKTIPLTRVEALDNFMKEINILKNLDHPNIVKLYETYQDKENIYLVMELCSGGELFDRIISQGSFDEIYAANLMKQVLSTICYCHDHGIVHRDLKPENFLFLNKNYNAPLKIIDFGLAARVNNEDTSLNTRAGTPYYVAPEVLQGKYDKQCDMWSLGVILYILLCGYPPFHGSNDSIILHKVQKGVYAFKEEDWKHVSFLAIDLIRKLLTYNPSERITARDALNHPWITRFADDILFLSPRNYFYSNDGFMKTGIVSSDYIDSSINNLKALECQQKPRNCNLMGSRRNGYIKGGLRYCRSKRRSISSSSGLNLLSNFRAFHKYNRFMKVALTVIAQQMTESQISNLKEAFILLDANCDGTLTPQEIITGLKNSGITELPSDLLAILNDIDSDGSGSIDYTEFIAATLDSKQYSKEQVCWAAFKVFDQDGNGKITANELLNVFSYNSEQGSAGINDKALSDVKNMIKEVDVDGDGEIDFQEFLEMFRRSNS

## O=C(CSc1nc2ccsc2c(=O)n1-c1ccc(Cl)cc1)NCc1ccco1 [K292-0423]
Cryptosporidium parvum [1]
  EC50: 3.16 µM
rCpCDPK2A; 10 μM compound, read-out: Inhibition rate of rCpCDPK2A activity
  inhibition at 10 µM: 73.1%
rCpCDPK2A; concentrations 1 μM to 20 μM, read-out: IC50 on CpCDPK2A enzyme
  IC50: 8.42 µM
HCT-8 cells
  TC50 (half-maximal toxic concentration): >75 µM
Cryptosporidium parvum [2]
  Inhibition rates of invasion of HCT-8 cells by C. parvum: −24.27 to 37.66%
Cryptosporidium parvum [3]; 10 μM, read-out: Inhibition of parasite growth in primary screening
  inhibition at 10 µM: > 60%
Cryptosporidium parvum [3]; dilutions 10 nM to 20 μM, read-out: EC50 (half-maximal effective concentration) on C. parvum growth
  EC50: 1.13 µM
Cryptosporidium parvum [4]
  Inhibitory effect by direct enumeration of parasites: inhibitory effects similar to that by the positive control paromomycin

From publication PMC9090282, “Characterization of Calcium-Dependent Protein Kinase 2A, a Potential Drug Target Against Cryptosporidiosis” (Frontiers in Microbiology, 2022)
